Experiment in all cases: ≥ marks a high value that may be exact or a test limit, other limits are often not marked, values filed in µg/mL are converted to µM
Test [1] concerns Escherichia coli ATCC 11229.
The test system of test [2] is Escherichia coli ATCC 35218.
Test [3] concerns Klebsiella pneumoniae ATCC 13866.
Test [4] has as its system Pseudomonas aeruginosa ATCC 27853.
The subject of test [5] is Staphylococcus aureus ATCC 25923.
The subject of test [6] is Staphylococcus aureus ATCC 29213.
Test [7] has as its system Staphylococcus aureus ATCC 33591.
The test system of test [8] is Staphylococcus epidermidis ATCC 12228.
Test [9] has as its system Acinetobacter baumannii KCTC 2508.
Test [10] relates to Bacillus subtilis KCTC 2217.
Test [11] relates to Candida albicans NBRC 1385.
Test [12] concerns Cutibacterium acnes JCM 6473.
The subject of test [13] is Porphyromonas gingivalis ATCC 33277.
In test [14] the test system is Streptococcus mutans JCM 5705.

In brackets after ≈: the same amount, converted by molar mass. Several values for one entry are separate records, joined by “and”; a condition that tells them apart may be missing. Equal values may be shown once.

On to `CC[C@H](C)[C@H](NC(=O)[C@@H](NC(=O)[C@H](CO)NC(=O)CN)C(C)C)C(=O)N[C@@H](CCCN=C(N)N)C(=O)N[C@@H](C)C(=O)N[C@@H](CC(C)C)C(=O)N[C@@H](CCSC)C(=O)N[C@@H](CCCN=C(N)N)C(=O)N[C@@H](CCSC)C(=O)N[C@@H](Cc1ccccc1)C(=O)N[C@@H](C)C(=O)N[C@@H](CCCN=C(N)N)C(=O)N[C@@H](CC(C)C)C(=O)N[C@H](C(=O)NCC(=O)O)C(C)C` [GSVIRALMRMFARLVG], for which the MIC is at least 36 µM in [1]; at least 36 µM in test [2]; at least 36 µM in test [3]; 4.5 µM (≈ 8 µg/mL) in test [4]; 36 µM (≈ 64 µg/mL) in [5]; 36 µM (≈ 64 µg/mL) in test [6]. Moreover, the MIC in [7] and in test [8] was 4.5 µM (≈ 8 µg/mL) each time.

On to `CC(C)C[C@H](NC(=O)[C@H](CCCCN)NC(=O)[C@H](CCCCN)NC(=O)[C@H](CC(C)C)NC(=O)[C@H](CC(C)C)NC(=O)[C@H](CCCCN)NC(=O)[C@H](CCCCN)NC(=O)[C@H](CC(C)C)NC(=O)[C@H](CC(C)C)NC(=O)[C@@H]1CCCN1C(=O)[C@H](CCCCN)NC(=O)[C@H](CCCCN)NC(=O)[C@H](CC(C)C)NC(=O)[C@H](CC(C)C)NC(=O)[C@H](CCCCN)NC(=O)[C@@H](N)CCCCN)C(N)=O` [KKLLKKPLLKKLLKKL], for which the MIC in [9] is 3.13 µM (≈ 6.05 µg/mL); in test [10] it was 1.56 µM (≈ 3.01 µg/mL); in [5] it was 1.56 µM and > 0.78 µM.

As for `CC(C)C[C@H](NC(=O)[C@H](CCCCN)NC(=O)[C@H](CCCCN)NC(=O)[C@H](CC(C)C)NC(=O)[C@H](CC(C)C)NC(=O)[C@H](CCCCN)NC(=O)[C@H](CCCCN)NC(=O)[C@H](CC(C)C)NC(=O)[C@H](CC(C)C)NC(=O)[C@@H]1CCCN1C(=O)[C@H](CCCCN)NC(=O)[C@H](CCCCN)NC(=O)[C@H](CC(C)C)NC(=O)[C@@H](N)CC(C)C)C(N)=O` [LLKKPLLKKLLKKL], the MIC in test [9] was 12.5 µM (≈ 20.9 µg/mL); in test [10], 1.56 µM (≈ 2.61 µg/mL); in test [5], 1.56 µM and > 0.78 µM.

Take `CSCC[C@H](NC(=O)[C@H](CC(C)C)NC(=O)[C@H](CC(C)C)NC(=O)[C@H](CCCCN)NC(=O)[C@H](CCCN=C(N)N)NC(=O)[C@H](CCC(=O)O)NC(=O)[C@H](CC(C)C)NC(=O)[C@H](CC(C)C)NC(=O)[C@H](CO)NC(=O)[C@@H](N)CCSC)C(=O)N[C@@H](Cc1cnc[nH]1)C(=O)N[C@@H](Cc1ccccc1)C(=O)N[C@@H](CC(C)C)C(=O)N[C@@H](CCCN=C(N)N)C(=O)N[C@H](C(=O)O)C(C)C` [MSLLERKLLMHFLRV]: the MIC in test [1] is at least 33.9 µM; in test [2] it was at least 67.9 µM; in test [3] it was at least 33.9 µM; in test [4] it was 4.24 µM (≈ 8 µg/mL); in test [5], 8.48 µM (≈ 16 µg/mL); in [7], 8.48 µM (≈ 16 µg/mL). Moreover, the MIC in [8] was found to be 8.48 µM (≈ 16 µg/mL).

Consider `CC[C@H](C)[C@H](NC(=O)[C@@H](N)CCCN=C(N)N)C(=O)N[C@@H](CCCN=C(N)N)C(=O)N[C@@H](CC(C)C)C(=O)N[C@@H](CC(C)C)C(=O)N[C@@H](CCC(N)=O)C(=O)N[C@@H](CCCN=C(N)N)C(=O)N[C@@H](Cc1ccccc1)C(=O)N[C@@H](CC(N)=O)C(=O)N[C@@H](CCCCN)C(=O)N[C@@H](CCCN=C(N)N)C(=O)O` [RIRLLQRFNKR], for which the minimal inhibitory concentration (MIC) in test [11] was at least 512 µM; in test [12], at least 1020 µM; in test [13], at least 256 µM; in test [14], at least 1020 µM.

On to `C[C@@H](O)[C@H](NC(=O)[C@H](CCCCN)NC(=O)[C@H](CCCCN)NC(=O)[C@H](CO)NC(=O)[C@H](CCCN=C(N)N)NC(=O)[C@H](Cc1c[nH]c2ccccc12)NC(=O)[C@H](CCC(=O)O)NC(=O)[C@H](CCCN=C(N)N)NC(=O)[C@H](CO)NC(=O)[C@H](CCCCN)NC(=O)[C@@H](N)CCCN=C(N)N)C(=O)N[C@@H](CCC(N)=O)C(=O)N1CCC[C@H]1C(=O)N[C@@H](CCCN=C(N)N)C(=O)N[C@@H](CCCN=C(N)N)C(=O)N1CCC[C@H]1C(=O)N[C@@H](CCCN=C(N)N)C(=O)O` [RKSREWRSKKTQPRRPR], for which the MIC in [11], in [12], in test [13] and in test [14] was at least 1020 µM in each case.

In general, MIC refers to the smallest concentration in the dilution series that meets the test's criterion for growth inhibition. Read a low MIC as inhibition by little substance.

These data come from DBAASP.
